PubChem BioAssay (NCI)
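The compound was tested at five concentrations on cells cultured in 96-well plates, with a 48-hour exposure period. Here, GI50 denotes the concentration required for 50% inhibition of growth. Definition used: TGI = concentration required for complete inhibition of growth.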

Legend:
Experiment in all cases: growth of human tumour cells (NCI), 48 h
K-562 leukemia = system: K-562 leukemia
OVCAR-5 ovarian = system: OVCAR-5 ovarian
OVCAR-8 ovarian = system: OVCAR-8 ovarian
SF-539 CNS = system: SF-539 CNS
A549 NSCLC = system: A549 NSCLC
RXF 393 renal = system: RXF 393 renal
OVCAR-3 ovarian = system: OVCAR-3 ovarian
SK-MEL-5 melanoma = system: SK-MEL-5 melanoma
T-47D breast = system: T-47D breast
NCI/ADR-RES ovarian = system: NCI/ADR-RES ovarian

Row | Structure (SMILES) | TGI (K-562 leukemia) | TGI (OVCAR-5 ovarian) | TGI (OVCAR-8 ovarian) | TGI (SF-539 CNS) | TGI (A549 NSCLC) | TGI (RXF 393 renal) | TGI (OVCAR-3 ovarian) | GI50 (OVCAR-5 ovarian) | GI50 (SK-MEL-5 melanoma) | TGI (SK-MEL-5 melanoma) | GI50 (OVCAR-8 ovarian) | GI50 (SF-539 CNS) | GI50 (T-47D breast) | TGI (T-47D breast) | GI50 (A549 NSCLC) | GI50 (RXF 393 renal) | GI50 (OVCAR-3 ovarian) | GI50 (NCI/ADR-RES ovarian) | TGI (NCI/ADR-RES ovarian) | GI50 (K-562 leukemia)
1 | CC1CC2(S(=O)(=O)c3ccccc3)ON1CC2S(=O)(=O)c1ccccc1 (stereo not given) | > 100 µM | > 100 µM | > 100 µM | > 100 µM | > 100 µM | > 100 µM | > 100 µM |  |  |  |  |  |  |  |  |  |  |  |  | 
2 | CCCC1(CN2c3ccccc3Sc3ccc(Cl)cc32)CCN(CC)C1 (stereo not given) |  | 3.48 µM | 3.35 µM | 3.61 µM | 3.38 µM | 2.94 µM | 3.09 µM | 1.71 µM | 1.62 µM | 3 µM | 1.78 µM | 1.85 µM | 2.21 µM | 5.03 µM | 1.78 µM | 1.54 µM | 1.61 µM | 1.68 µM | 3.36 µM | 
3 | O=C(NN1C(=O)CSC1c1cccc(Cl)c1)C(O)c1ccccc1 (stereo not given) | > 100 µM | > 100 µM | > 100 µM | > 100 µM | > 100 µM | > 100 µM | > 100 µM | > 100 µM | > 100 µM | > 100 µM | 83.5 µM | > 100 µM | 67.7 µM | > 100 µM | 35.9 µM | 59.3 µM | 33.8 µM |  |  | 27.4 µM
4 | C=C1C(=O)O[C@H]2[C@H]1CC/C(COC(=O)NCc1ccc(Cn3c(=O)sn(CCCCC)c3=O)cc1)=C\CC[C@@]1(C)O[C@@H]21 |  | 4.91 µM | 5.46 µM | 3.2 µM | 22.8 µM |  | 2.75 µM | 2.01 µM | 3.92 µM | 14.3 µM | 2.26 µM | 1.64 µM | 1.75 µM | 4 µM | 8.82 µM |  | 1.41 µM | 14.4 µM | 46.5 µM | 
5 | COc1cc2c(c3c1c(=O)c1ccccc1n3C)C=CC(C)(C)O2 | > 100 µM | > 100 µM | > 100 µM | > 100 µM | > 100 µM | 89 µM | > 100 µM |  |  | > 100 µM |  |  |  |  |  |  |  |  |  | 
6 | CCOc1cccc2c1N[S@@](=O)S2 | > 100 µM |  |  | > 100 µM | > 100 µM |  | > 100 µM |  |  |  |  |  |  |  |  |  |  |  |  | 
7 | CCOc1ccc(N=C2NC(=O)C(CC(=O)Nc3ccccc3[N+](=O)[O-])S2)cc1 (stereo not given) | > 100 µM | > 100 µM | > 100 µM | > 100 µM | > 100 µM | > 100 µM | > 100 µM |  |  | > 100 µM |  |  |  |  |  |  |  |  |  | 
8 | COc1ccc(/C=C(\NC(=O)c2ccccc2)c2nc3ccccc3[nH]2)cc1OC | > 100 µM | > 100 µM | > 100 µM | > 100 µM | > 100 µM | > 100 µM | > 100 µM |  |  | > 100 µM |  |  |  |  |  |  |  |  |  | 
9 | C1=Cc2nc1c(-c1ccccc1)c1ccc([nH]1)c(-c1ccccc1)c1nc(c(-c3ccccc3)c3ccc([nH]3)c2-c2ccccc2)C=C1 | > 100 µM | > 100 µM | > 100 µM | > 100 µM | > 100 µM |  | > 100 µM |  |  | > 100 µM |  |  |  |  |  |  |  |  |  | 
10 | CCOC(=O)c1sc(-c2ccc(OS(=O)(=O)C[C@]34CCC(CC3=O)C4(C)C)c(C=O)c2)nc1C | > 13.5 µM | 2.68 µM | > 50 µM | 1.85 µM | > 50 µM | 2.75 µM | 2.72 µM | 0.97 µM | 0.877 µM | 1.59 µM | 1.53 µM | 0.908 µM | 0.78 µM | 2.46 µM | 1.25 µM | 0.943 µM | 0.904 µM |  |  | 0.753 µM
11 | COc1ccc(O)c(C(=O)CCC(=O)O)c1 | > 100 µM | > 100 µM | > 100 µM | > 100 µM | > 100 µM | > 100 µM | > 10 µM |  |  | > 100 µM |  |  |  |  |  |  |  |  |  | 
12 | Clc1ccccc1CN1COc2c(ccc3cccnc23)C1 | 4.51 µM | 22.8 µM | 15.3 µM | 11.7 µM | 14.2 µM |  | 11.2 µM |  |  | 8.93 µM |  |  |  |  |  |  |  |  |  | 
13 | CCSc1ccc([C@@H]2[C@@H](O)C(=O)N2c2cc(OC)c(OC)c(OC)c2)cc1 | > 69.9 µM | > 100 µM | 16.8 µM |  | 80.6 µM | 52.3 µM | 0.548 µM | 0.0526 µM | < 0.0118 µM | 0.433 µM | 0.0211 µM |  | 14.2 µM | 45.8 µM | < 0.0159 µM | < 0.01 µM | < 0.01 µM | 0.0157 µM | 23.9 µM | < 0.01 µM
14 | COc1ccc(Nc2nc(Nc3cc(C)[nH]n3)c3cc(OC)c(OC)cc3n2)cc1 |  | 3.74 µM |  | 2.39 µM |  | 2.83 µM | 2.26 µM | 2 µM | 1.37 µM | 3.05 µM |  | 1.1 µM | 1.07 µM | 3.48 µM |  | 1.49 µM | 1.01 µM |  |  | 
15 | CCCC(=O)N[C@H]1CCc2cc(OC)c(OC)c(OC)c2-c2ccc(SC)c(=O)cc21 | > 100 µM | > 100 µM | > 15.8 µM | < 0.01 µM | > 100 µM |  | < 0.0423 µM |  |  | < 0.0989 µM |  |  |  | > 100 µM |  |  |  |  |  | 
16 | COc1cc(C2=NN(C(C)=O)C(c3cc(OC)c(OC)c(OC)c3)C2)ccc1O (stereo not given) | > 100 µM | > 100 µM | > 100 µM | 1.54 µM | > 100 µM |  | 5.21 µM | 6.74 µM | 0.132 µM | 2.19 µM | 0.619 µM | 0.271 µM |  |  | 0.579 µM |  | 0.289 µM | 0.283 µM | > 100 µM | 0.261 µM
17 | COC(=O)C(=O)C(CC(=O)Nc1ccc(C)cc1)C(=O)OC (stereo not given) | > 100 µM | > 100 µM | > 100 µM | > 100 µM | > 100 µM | > 100 µM | > 100 µM |  |  | > 100 µM |  |  |  |  |  |  |  |  |  | 
18 | C=C1C(=O)C23[C@H](O)C1CC[C@H]2[C@]12COC3(O)[C@@H](O)[C@@H]1C(C)(C)CC[C@@H]2O | 15.6 µM | 32.7 µM | 27.2 µM | 22.6 µM | 44.7 µM | 10.9 µM | 28.2 µM |  |  | 28.6 µM |  |  |  |  |  |  |  |  |  | 
19 | CN(C)c1ccc(/C=C(\NC(=O)c2ccccc2)c2nc3ccc4c(c3[nH]2)C(=O)c2ccccc2C4=O)cc1 | > 100 µM | > 100 µM | > 100 µM | > 100 µM | > 100 µM | 93.8 µM | > 100 µM |  |  | > 100 µM |  |  |  |  |  |  |  |  |  | 
